Patent US20250241890A1, “1,4-DIUREAS AND 1,4-DITHIOUREAS AND USES THEREOF” (Purdue Research Foundation, priority 2024, published 2025)

Columns and labels:
[1] = system: neuroblastoma cells (SH-SY5Y); assay: Crystal violet staining cytotoxicity; format: cell-based, human; conditions: four days
Procedure: The cytotoxicity of compounds 1 and 2 was assessed using human neuroblastoma cells (SH-SY5Y). Employing the crystal violet staining method, determination of the optical density was used to reflect on the percentage of cells attached to each well (6-well plate format) after treatment with control DMSO (0.14) and compound concentrations at 5 and 10 μM. Treated cells were incubated at 37° C. with 5% CO2 for four days. […] Compound 2 was also non cytotoxic at higher concentration, i.e., 10 μM. Differences were not statistically significant at […] via one-way analysis of variance ANOVA with post-test (Dunnett's multiple comparison test).

α-synuclein (α-syn) = molecular target: T1, α-synuclein (α-syn) (Homo sapiens, UniProt P37840); assay: Thioflavin T (ThT) fluorescence assay of α-syn fibril formation; format: biochemical; conditions: for remaining activity at 100 µM: α-syn 2 μM final concentration, compounds at 100 μM, average of three replicates with SEM, read-out: % ThT intensity (100 μM), maximum ThT intensity in percentage
T1 construct: purchased rPeptide (Watkinsville, GA)
Procedure: Chemical and peptide source. Dimethylsulfoxide (DMSO) and thioflavin-T (ThT) were purchased from Alfa Aesar (Ward Hill, MA). Recombinant α-synuclein (α-syn) was procured from rPeptide (WatKinsville, GA). The recombinant p-tau isoform 1N4R was prepared as published previously (Fortin et al. 2021, Sui et al. 2015, Liu et al. 2020). Concerning the preparation of tau 0N4R, a bacterial expression plasmid consisting of the vector pET30a carrying a cDNA encoding the human Tau 0N4R isoform was a kind gift of Dr. Benjamin Wolozin (Boston University). E. coli stock (Rosetta BL21 E. coli (CamR) containing pET30a [0N4R tau wt] (KanR)) was grown in LB medium supplemented with kanamycin (50 μg/mL) and chloramphenicol (50 μg/mL). Protein over-expression was induced by the addition of 1 mM IPTG for ˜18 hours at 37° C., and cells were pelleted by centrifugation at 6,000 g for 15 minutes at 4° C. The cells were resuspended in lysis buffer (10 mM Hepes, pH 7.4, 50 mM NaCl, 1 mM MgCl2, 1 mM PMSF, 1× PIC, and 0.5 mM DTT) and lysed by sonication at 30 seconds “On” and 1 minute “Off” at ˜30-45% power for ˜3-5 minutes. Lysate was centrifuged at 10,000 rpm for 10 minutes at 4° C., and supernatant was transferred with 7.8 ml (total) of 3M NaCl. The lysate was incubated for 10 minutes in 80° C. water bath, then cooled for 10 minutes in an ice bath. The lysate was centrifuged at 10,000 rpm at 4° C. for 10 minutes, and the supernatant was transferred to a new tube. The supernatant was dialyzed overnight against cation exchange buffer (50 mM MES, […], 1 mM DTT, pH 6.0). The dialysate was loaded onto a HiPrep SP HP column, and proteins were eluted with a linear gradient ranging from 50 mM to 1 M NaCl. General Characterizations. ^1H and ^13C {1H} NMR spectra were recorded using a 500 MHz Bruker instrument working at a frequency of 500 MHz for ^1H and at 126 MHz for ^13C. Chemical shifts are reported in ppm using residual solvent resonances as internal reference (δ 2.50 and δ 39.51 for ^1H and ^13C in DMSO-d6, respectively). ^1H NMR data are reported as follows. b=broad, s=singlet, d=doublet, t=triplet, q=quartet, and m=multiplet. Coupling constants are given in hertz. The purity of all compounds and synthetic intermediates was judged to be 95% or better based on ^1H NMR. IR measurements were performed in a Nicolet FTIR as thin films in the Purdue Drug Discovery facility. High-resolution mass spectrometry analyses were conducted at the MSU Mass Spectrometry facility. Thioflavin fluorescence assays. […] The recombinant α-syn obtained from rPeptide has been validated with proper quality control to confirm the monomeric state of the protein. Kinetics of fibril formation have been performed using ThT as published previously.^6, 12, 13, 24 The fluorescence emission experiments were performed with the excitation and emission wavelengths set at 440 and 485 nm, respectively, with a Synergy HT multi-mode microplate reader (BioTek, Winooski, VT). Samples were measured in three replicates. Experiments were repeated three times using different α-syn stock solutions. For each time point, arbitrary units of fluorescence were calculated from the mean values normalized against the maximum value. The percentage of fluorescence intensity at the plateau phase in Table 1 was expressed as mean #SEM. Concerning the dose response curve depicted in FIG. 2, the data were plotted using GraphPad Prism. Photo-induced Cross-linking of Unmodified Proteins (PICUP) Assay. To induce oligomerization by cross-linking, α-syn (from Rpeptide, LLC) was diluted in 10 mM phosphate buffer (pH 7.4) to reach a final concentration of 50 μM. Different compounds were added to the protein solution at a final concentration of 50 μM, resulting in a molar ratio of 1:1. PICUP assays were performed with the following controls: samples without light exposition, without Ru(bpy) or ammonium persulfate, and without compound (i.e., 0.125% DMSO). […]

| SMILES | cytotoxicity, crystal violet staining ([1]; 5 μM) | EC50 (α-synuclein (α-syn); Log (agonist) vs. normalized response (variable slope), Prism, α-syn 6 μM, 47 hours, 12.5, 25, 50 and 100 μM, read-out: Log EC50 (dose response curve of α-syn fibrillation, ThT) (converted)) | remaining activity at 100 µM (α-synuclein (α-syn)) | cytotoxicity, crystal violet staining ([1]; 10 μM) | dose-dependent reduction of α-syn fibrillation (ThT) (α-synuclein (α-syn); α-syn 6 μM, 47 hours, 12.5, 25, 50 and 100 μM) |
| --- | --- | --- | --- | --- | --- |
| O=C(Nc1ccc(NC(=O)Nc2cccc3[nH]ccc23)cc1)Nc1cccc2[nH]ccc12 [Compound 1, 3-(1H-indol-4-yl)-1-(4-{[(1H-indol-4-yl)carbamoyl]amino}phenyl)urea] | non cytotoxic | 15.9 ± 2.8 µM | 5.3% |  |  |
| S=C(Nc1ccc(NC(=S)Nc2cccc3[nH]ccc23)cc1)Nc1cccc2[nH]ccc12 [Compound 2, 3-(1H-indol-4-yl)-1-(4-{[(1H-indol-4-yl)carbamothioyl]amino}phenyl)thiourea] | non cytotoxic |  | 15.2% | non cytotoxic | dose-dependent reduction |
| S=C(Nc1ccc(NC(=S)Nc2cccc3cc[nH]c23)cc1)Nc1cccc2cc[nH]c12 [Compound 8, 3-(1H-indol-7-yl)-1-(4-{[(1H-indol-7-yl)carbamothioyl]amino}phenyl)thiourea] |  |  | 41.6% |  |  |
